Laboratory results from patent US7214697B2, “2-Oxo-benzimidazolyl substituted ethanolamine derivatives and their use as β3 agonists” (Eli Lilly and Company, priority 2002, dated 2007).

Biological target: T1, human β3 adrenergic receptor (Homo sapiens, UniProt P13945)
T1 construct: expressed in transfected cells; host or cells: DXB-11 Chinese hamster ovary (CHO) cell line, stably transfected (phd expression vector)
Experiment: whole cell receptor coupled c-AMP assay (Emax relative to isoproterenol)
Type: cell-based
Settings: transfected CHO cells, c-AMP SPA; compound's maximal response divided by isoproterenol maximal response times 100; average of at least 3 runs; SEM in brackets; read-out: Emax (SEM), % intrinsic activity relative to isoproterenol
Source text: The Emax values represent the average of at least 3 runs except as otherwise indicated.
The genes encoding the human β1-adrenergic receptor (Frielle et al., Proc. Natl. Acad. Sci., 84:7920–7924, 1987), the human β2-adrenergic receptor (Kobika et al., Proc. Natl. Acad. Sci., 84:46–50, 1987, Emorine et al., Proc. Natl. Acad. Sci., 84:6995–6999, 1987) and the human β3 adrenergic receptor (GraTineman et al., Molecular Pharmacology, 44(2):264–70, 1993) are individually subcloned into a phd expression vector (Grinnell el al., Bio/Technology, 5:1189–1192, 1987) and transfected into the DXB-11 Chinese hamster ovary (CHO) cell line by calcium phosphate precipitation methodology. The stably transfected cells are grown to 95% confluency in 95% Dulbecco's modified Eagles Medium (DMEM), 5% fetal bovine serum and 0.01% proline. Media is removed and the cells are washed with phosphate buffered (pH 7.4) saline (without magnesium and calcium). Cells are then lifted using an enzyme free cell dissociation solution (Specialty Media, Lavallette, N.J.) and pelleted by centrifugation.
Cells from each of the above cell lines are resuspended and added (20,000/well) to a 96-well plate. Cells are incubated at 37° C. with representative compounds of the invention for 20 minutes in buffer (Hank's balanced salt solution, 10 mM HEPES, 0.1% BSA, 1 mM L-ascorbic acid, 0.2% dimethyl sulfoxide, 1 mM 3-isobutyl-1-methylxanthine, pH 7.4). After halting the incubation with quench buffer (50 mM Na Acetate, 0.25% Triton X-100, pH 5.8), the c-AMP level is quantified by scintillation proximity assay (SPA) using a modification of the commercially available c-AMP kit (Amersham, Arlington Heights, Ill.) with rabbit anti-cAMP antibody (ICN Bioniedicals, Aurora, Ohio) for the kit.
Sigmoidal dose response curves, from the whole cell receptor coupled c-AMP assay are fit to a four parameter logistic equation using non linear regression: y=(a-d)/(1+(Dose/c)^b)+d where a and d are responses at zero and maximal dose, b is the slope factor and c is the EC50 as previously described (DeLean et al., Am. J. Physiol., 235, E97–E102, 1978). EC50 is assessed as the concentration producing 50% of the maximum response to each agonist.
Isoproterenol is accepted in the art as a non-selective β3 agonist and is widely used as a comparator in evaluating the activity of compounds. See Trends in Pharm. Sci., 15:3, 1994. The % intrinsic activity (Emax) of representative compounds of the invention is assessed relative to isoproterenol by the compound's maximal response divided by the isoproterenol maximal response times 100.

T1 sequence (P13945 whole entry): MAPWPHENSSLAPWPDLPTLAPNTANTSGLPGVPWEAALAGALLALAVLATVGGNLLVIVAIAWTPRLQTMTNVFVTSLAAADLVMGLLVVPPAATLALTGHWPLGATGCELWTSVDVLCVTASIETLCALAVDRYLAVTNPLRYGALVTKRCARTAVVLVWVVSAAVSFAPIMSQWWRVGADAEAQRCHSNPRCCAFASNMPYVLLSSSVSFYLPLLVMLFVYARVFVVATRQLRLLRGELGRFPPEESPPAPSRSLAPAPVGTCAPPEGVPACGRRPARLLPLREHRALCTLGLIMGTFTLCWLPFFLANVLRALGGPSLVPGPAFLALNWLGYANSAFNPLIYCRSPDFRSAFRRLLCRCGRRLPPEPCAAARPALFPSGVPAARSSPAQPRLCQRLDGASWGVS

Compound | Emax
CC(C)(Cc1ccc(Oc2ccc(C(N)=O)cn2)cc1)NC[C@H](O)COc1cccc2[nH]c(=O)n(CC3CC3)c12 [Example 14] | 67.9%
CC(C)(Cc1ccc(Oc2ncccc2C(N)=O)cc1)NC[C@H](O)COc1cccc2[nH]c(=O)n(CC3CCCC3)c12 [Example 20] | 66.8%
CC(C)(C)Cn1c(=O)[nH]c2cccc(OC[C@@H](O)CNC(C)(C)Cc3ccc(Oc4ccc(C(N)=O)cn4)cc3)c21 [Example 12] | 65.5%
CC(C)(Cc1ccc(Oc2ccc(C(N)=O)cn2)cc1)NC[C@H](O)COc1cccc2[nH]c(=O)n(CC3CCC3)c12 [Example 17] | 58.2%

Next, values leading:

Emax | Compound
59.8% | CC(C)(Cc1ccc(Oc2ncccc2C(N)=O)cc1)NC[C@H](O)COc1cccc2[nH]c(=O)n(CC3CCC3)c12 [Example 18]
80.1% | CC(C)(Cc1ccc(Oc2ncccc2C(N)=O)cc1)NC[C@H](O)COc1cccc2[nH]c(=O)n(CC3CC3)c12 [Example 15]
63.7% | CC(C)(Cc1ccc(Oc2ccc(C(N)=O)cn2)cc1)NC[C@H](O)COc1cccc2[nH]c(=O)n(CC3CCCC3)c12 [Example 19]
66.4% | CC(C)(C)Cn1c(=O)[nH]c2cccc(OC[C@@H](O)CNC(C)(C)Cc3ccc(Oc4ncccc4C(N)=O)cc3)c21 [Example 13]
76% | CC(C)(Cc1ccc(Oc2ccc(C(N)=O)cc2Cl)cc1)NC[C@H](O)COc1cccc2[nH]c(=O)n(CC3CC3)c12 [Example 16]

Test system: rat atria
Experiment: In Vitro Rat Atrial Tachycardia
Settings: isolated rat atria, cumulative addition until no further increase in atrial rate or 10^-4; average of at least 3 runs
Experimental: Male rats (250–350 g) (Harlan Sprague Dawley, Indianapolis, Ind., USA) are killed by cervical dislocation. Hearts are removed and the left and right atria are dissected and mounted with thread in tissue baths containing 10 mls of modified Krebs' solution. Initial resting tension is 1.5–2.0 g at the outset of the experiment (Naunyn-Schmied Arch. Pharmacol., 320:145, 1982). Tissues are allowed to equilibrate approximately 30 minutes with vigorous oxygenation before exposure to a compound of the invention.
To evaluate the ability of test compounds to increase heart rate, representative compounds of the present invention are added cumulatively once the atrial rate reached a steady state from the previous addition. Compound addition is continued until no further increase in atrial rate occurred or until a concentration of 10^−4 is reached. The increase in beats per minute (bpm) is measured for each concentration of test compound by means of a BioPac System (Br. J. of Pharmacol., 126:1018–1024, 1999).
The “% increase” values represent the average of at least 3 runs.

Compound | % Increase in Heart Rate
CC(C)(Cc1ccc(Cc2ccc(C(N)=O)cn2)cc1)NC[C@H](O)COc1cccc2[nH]c(=O)n(CC3CCCC3)c12 [Cyclopentylmethyl] | 9.9 ± 0.3%
Cn1c(=O)[nH]c2cccc(OC[C@@H](O)CNC(C)(C)Cc3ccc(Cc4ccc(C(N)=O)cn4)cc3)c21 [Methyl, reference compound] | 20.8 ± 1.8%
CC(C)(Cc1ccc(Cc2ccc(C(N)=O)cn2)cc1)NC[C@H](O)COc1cccc2[nH]c(=O)n(CC3CCC3)c12 [Cyclobutylmethyl] | 6.5 ± 2.2%
CC(C)(Cc1ccc(Cc2ccc(C(N)=O)cn2)cc1)NC[C@H](O)COc1cccc2[nH]c(=O)[nH]c12 [Hydrogen, reference compound] | 17.7 ± 3.7%
CCn1c(=O)[nH]c2cccc(OC[C@@H](O)CNC(C)(C)Cc3ccc(Cc4ccc(C(N)=O)cn4)cc3)c21 [Ethyl, reference compound] | 19.9 ± 0.4%
CC(C)(Cc1ccc(Cc2ccc(C(N)=O)cn2)cc1)NC[C@H](O)COc1cccc2[nH]c(=O)n(CC3CC3)c12 [Cyclopropylmethyl] | 8.9 ± 1.2%

Test system: not given
Experiment: not given
Settings: not given

Compound | melting point
CC(C)(Cc1ccc(Oc2ccc(C(N)=O)cc2Cl)cc1)NC[C@H](O)COc1cccc2[nH]c(=O)n(CC3CCCC3)c12.Cl [Example 21] | 159 to 164 °C (dec.)
